Laboratory results taken from US20230295728A1, “METHODS FOR DIAGNOSING AND TREATING AUTISM” (CENTRE NATIONAL DE LA RECHERCHE SCIENTIFIQUE (CNRS), priority 2020, published 2023).
Entries after “also recorded” stand apart in the source; their conditions may differ.

Key:
Balb c mice [1] = test: Glass marble burying test; format: in vivo, mouse
Method: According to the described protocols, newly filled bedding cages were prepared with 20 marbles spaced on the bedding surface. Mice were individually caged. After 30 minutes, each mouse was returned to its home cage, and the buried marbles were counted (data not shown). Marbles that were not buried were not included in the analysis.

Balb c mice [2] = test: Social interaction test (three chambers); format: in vivo, mouse
Method: To determine whether these interactions varied between the groups of mice, they were filmed for 5 minutes. There are many different ways to follow social interaction. Here, we present the results in a simple way based on conditions in a cage separated into three sections. The mice being tested were placed in the center of the cage and were filmed to calculate the time that they spent close to the empty compartment or the compartment occupied by another mouse. The three chambers were separated by square doors in the two inner walls connecting to the center area. Briefly, the test mouse was introduced in the center to initiate habituation for 5 minutes while blocking access to the side compartments. The first test was conducted by placing an unfamiliar mouse inside an empty wire cage in one of the side chambers to measure the social interaction of the subject mouse without direct social contact. On the other side, there was an empty wire cage. Each test was performed for 10 minutes (data not shown), and the floor surfaces were wiped with 70% ethanol between trials. The accumulated time spent in each compartment and the sociability or social preference indices were measured to quantify the social behavior of the mice.

[3] = test system: six-microRNAs (miR-19a-3p, miR-361-5p, miR-3613-3p, miR-150-5p, miR-126-3p, miR-499a-5p); test: miRNA analysis of the mouse models (q-PCR of blood, sperm, hippocampus RNA); format: in vivo; details: VPA-treated mice (500 mg/kg)
Method: Routine qPCR for miR detection and validation^41 was performed with the miScript PCR control set (catalog number 218380; Qiagen, Germany). The miScript™ miRNA PCR Array Human Serum & Plasma 384HC (Cat No: 331223) was used in this study. The Human Serum & Plasma 384HC miScript miRNA PCR Array profiles the expression of 372 miRNAs) that are detectable in serum and plasma using the miScript PCR system. SNORD61, SNORD68, SNORD72, SNORD95, SNORD96A, RNU6-2, miRTC, miRTC, and PPC were used as controls. The data were normalized using the 2^−ΔΔct method.
Total RNA was prepared from mouse tissues (blood, hippocampus, sperm) according to published procedures^42. Sperm cells were isolated from the epididymis, and floating sperm were recovered by successive washing (PBS) and centrifugation at 3000 rpm. Briefly, RNAs were extracted from all tissues (hippocampus, blood and sperm cells) via a standard protocol. Qiazol Lysis Buffer (Cat. No: 79306; Qiagen, Texas, USA) was used in accordance with the manufacturer's instructions. The Qiazol-extracted aqueous phase was ethanol precipitated, followed by washing twice with 70% ethanol. To remove the remaining DNA, the PCR samples were treated with DNase according to the manufacturer's instructions.

Balb c mice [4] = test: Open field and Morris water tests; format: in vivo, mouse; details: 500 mg/kg VPA group (data not shown)
B6D2 and Balb c males = test system: B6D2 and Balb c males
Method: The control group received the same volume (0.1 ml) of 0.9% saline buffer. At 14 days post birth, all offspring (8-12 pups from each litter) were injected (intraperitoneally) with VPA at […] or with saline buffer as a control. […] The F1 to F2 generations were obtained following treatment with the 300 to 500 mg/kg VPA doses. The F1 generation derived from VPA-injected F0 fathers is referred to as VPA-F1, while that from saline-injected fathers is identified as the control. Adult VPA-F1 males were bred with normal females.
VPA is known to perturb brain formation during early development^22 and to induce characteristic traits of ASD pathology^23,24. […] We treated the animals after birth rather than treating pregnant females as in previous studies^23,24 to avoid the multiple effects on embryonic development generated via the mothers during pregnancy as well as the effects on germ cells. […] In contrast, the injection of pregnant females often leads to an unpredicted arrest of embryonic development and mortality of the mothers either during pregnancy or after the birth of their progenies.
The spermatogonial stem cells that will continuously divide and differentiate throughout the life of the male are present, leaving open the possibility that some changes in transcript levels may be transmitted to the next generation.

Balb c mice [5] = test: Novel object recognition test; format: in vivo, mouse
From the text: The time spent with familiar versus novel objects highlighted a common characteristic of the test group versus the controls. Specifically, it indicated differences in the interest in and recognition of objects. NOR (novel object recognition) is a well-established test in a variety of animal models with multiple protocols. In general, it involves two trials of cognition evaluation based on the spontaneous exploratory conduct of a mouse to measure recognition memory. In the first trial, we used (first-day acquisition) animals that were exposed to two similar objects (small orange boxes) in a chamber for 5 minutes. During the second trial (second-day retention) mice were again exposed to two dissimilar objects for 5 minutes, including one familiar object from the first trial and one new object (blue box). Object recognition was measured (data not shown), according to the difference in the time spent with the familiar object versus the new object.

Balb c mice [6] = test: Tail suspension test; format: in vivo, mouse
Method: Adult mice (2 months old) (Balb c strain) weighing 25-27 g on the test day. The apparatus used for the tail test consisted of two filter covers each and enabled three mice to be tested simultaneously. Each mouse was suspended by the tail from a hook connected to the strain gauge, to which they were attached with adhesive tape with a length of 18 cm. The duration of each trial was 360 seconds. The tail suspension test was recorded using a SONY HDR-CX240E video recorder. […] An immobility posture indicates the abandonment of struggling and, thus, depression. Periods of agitation and immobility are reported (data not shown).

CCCC(CCC)C(=O)O [VPA, valproic acid]
marbles buried in 30 minutes (Balb c mice [1]; 500 mg/kg VPA F1 generation): the same behavior as in the founders, with significantly less activity
marbles buried in 30 minutes (Balb c mice [1]; 500 mg/kg, treated males): markedly less interest in burying marbles
overall activity in social interaction tests (Balb c mice [2]; 500 mg/kg VPA group): decrease in overall activity
time spent close to chamber with mouse versus empty chamber (Balb c mice [2]; 500 mg/kg, treated males): showed less interest and spent an even smaller amount of time close to the empty cage
expression of the six-microRNAs [3]: decreases not only in the blood but also in the sperm and hippocampus
overall activity (Balb c mice [4]): decrease in the overall activity as well by half
sudden mortality (B6D2 and Balb c males; 500 mg/kg i.p., males): without sudden mortality
mortality / lethality at high doses (B6D2 and Balb c males; 600-700 mg/kg, one i.p. injection at 14 days post birth, both mouse lines): dramatic lethality; also recorded: sudden dramatic mortality; also recorded: lethal
breeding behaviour, fertility, testes (B6D2 and Balb c males; mouse, in vivo, 500 mg/kg): a few males became aggressive toward females during breeding, showed reduced fertility and smaller testes
time spent with familiar versus novel objects (Balb c mice [5]; 400 mg/kg, only for familiar objects): Some effect was detectable
time spent with familiar versus novel objects (Balb c mice [5]; 500 mg/kg, treated males): lost interest and spent the same amount of time with the two objects but spent less time overall with both objects
immobility / struggle-related behaviour (Balb c mice [6]; 500 mg/kg, F0 treated males): a significant change that indicated abandonment and depression was observed
immobility / struggle-related behaviour (Balb c mice [6]; F1 generation of VPA-treated fathers, compared to F0): the reverse effect was observed
